This is an account of results in ChEMBL document CHEMBL1201862, “PubChem BioAssay data set” (2004).

One series deals with HeLa. Description: HeLa cell cytotoxicity, dose response, cytotoxicity control for MITF activator project, CellTiter-Glo luminescence, cherry-pick samples (AID 540259). Type of series: functional, cell-based. The settings on record: Homo sapiens. For orientation: In ATP-based viability assays light output follows the ATP content of the culture.
For the next series, the system named is CHO-K1. The experiment in a line: Counterscreen for antagonists of the orexin 1 receptor (OX1R; HCRTR1): Homogeneous time resolved fluorescence (HTRF)-based cell-based dose response assay to identify antagonists of the parental CHO-K1 cell line. [Related pubchem assays (depositor defined):AID434989, AID435008, AID463079, AID485270, AID492963, AID492964, AID492965, AID493232, AID504699, AID504701]. Format: functional. The settings on record: Cricetulus griseus.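 Also: potency for inhibition of ATP-stimulated IP1 production as antagonists.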

Series [1] in a line: Counterscreen for antagonists of the orexin 1 receptor (OX1R; HCRTR1): Fluorescence-based cell-based high throughput dose response assay to identify antagonists of the parental CHO cell line. [Related pubchem assays (depositor defined):AID434989, AID435008, AID463079, AID485270, AID492963, AID492964, AID492965, AID493232, AID504699, AID504701]. Type of series: functional. Background: A counterscreen serves to expose hits that act by an unwanted route or on another target.

Series [2] deals with T1, Orexin/Hypocretin receptor type 1 (Homo sapiens, UniProt O43613).
T1 sequence (O43613 whole entry): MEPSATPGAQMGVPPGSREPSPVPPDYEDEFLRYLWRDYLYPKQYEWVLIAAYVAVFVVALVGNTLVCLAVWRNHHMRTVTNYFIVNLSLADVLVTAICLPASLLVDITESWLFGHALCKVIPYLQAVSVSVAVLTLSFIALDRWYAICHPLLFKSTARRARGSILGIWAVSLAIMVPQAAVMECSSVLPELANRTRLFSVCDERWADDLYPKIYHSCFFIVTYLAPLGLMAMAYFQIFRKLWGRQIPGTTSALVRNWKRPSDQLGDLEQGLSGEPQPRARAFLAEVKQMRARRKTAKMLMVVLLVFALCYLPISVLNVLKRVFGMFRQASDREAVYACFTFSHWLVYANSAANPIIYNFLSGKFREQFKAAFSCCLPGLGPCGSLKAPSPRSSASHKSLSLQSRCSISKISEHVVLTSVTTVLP
The experiment in a line: Homogeneous Time Resolved Fluorescence (HTRF)-based cell-based high throughput dose response assay for antagonists of the orexin 1 receptor (OX1R; HCRTR1). [Related pubchem assays (depositor defined):AID434989, AID435008, AID463079, AID485270, AID492963, AID492964, AID492965, AID493232, AID504717, AID504718]. Type of series: functional.

In series [3] the target is T1, Orexin/Hypocretin receptor type 1. Description: Fluorescence-based cell-based high throughput dose response assay for antagonists of the orexin 1 receptor (OX1R; HCRTR1). [Related pubchem assays (depositor defined):AID434989, AID435008, AID463079, AID485270, AID492963, AID492964, AID492965, AID493232, AID504717, AID504718]. Format: functional.
Series [4] concerns the target T2, Cytochrome P450 3A4 (Homo sapiens, UniProt P08684).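 Also: CYP3A4 tested as one member of a cytochrome P450 panel screen.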
In a further series the target is Cytochrome P450 2C9 (Homo sapiens, UniProt P11712).
Sequence of Cytochrome P450 2C9 (P11712 whole entry): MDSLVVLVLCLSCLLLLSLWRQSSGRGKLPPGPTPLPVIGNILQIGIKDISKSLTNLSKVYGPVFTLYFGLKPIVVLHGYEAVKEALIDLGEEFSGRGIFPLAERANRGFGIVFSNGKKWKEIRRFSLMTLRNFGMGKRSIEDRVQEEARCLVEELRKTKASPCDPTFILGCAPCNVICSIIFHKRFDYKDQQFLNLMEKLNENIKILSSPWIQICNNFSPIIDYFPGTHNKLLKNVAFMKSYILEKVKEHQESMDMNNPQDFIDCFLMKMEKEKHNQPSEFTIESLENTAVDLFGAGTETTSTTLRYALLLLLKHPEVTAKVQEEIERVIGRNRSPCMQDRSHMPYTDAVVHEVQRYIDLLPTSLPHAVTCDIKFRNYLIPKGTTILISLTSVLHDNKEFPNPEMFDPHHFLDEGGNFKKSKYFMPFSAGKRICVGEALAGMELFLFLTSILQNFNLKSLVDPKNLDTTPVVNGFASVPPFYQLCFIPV
In series [5] the target is T3, Mannose-6-phosphate isomerase (Homo sapiens, UniProt P34949).
T3 sequence (P34949 whole entry): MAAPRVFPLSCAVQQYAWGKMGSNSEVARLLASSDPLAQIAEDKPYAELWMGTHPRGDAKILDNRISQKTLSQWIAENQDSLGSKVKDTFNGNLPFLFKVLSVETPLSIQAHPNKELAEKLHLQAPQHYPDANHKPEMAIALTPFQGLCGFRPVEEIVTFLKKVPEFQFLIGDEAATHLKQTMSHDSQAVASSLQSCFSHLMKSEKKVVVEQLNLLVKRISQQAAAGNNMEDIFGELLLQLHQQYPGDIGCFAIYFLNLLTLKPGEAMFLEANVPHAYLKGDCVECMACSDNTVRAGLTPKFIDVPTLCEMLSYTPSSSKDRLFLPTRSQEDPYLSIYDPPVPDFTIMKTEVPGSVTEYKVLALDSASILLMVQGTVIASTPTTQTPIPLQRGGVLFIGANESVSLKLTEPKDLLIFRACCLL
Description: inhibitors of human PMI, primary screen, biochemical, fluorescence intensity, coupled assay (AID 1209).

The nature of series [6]: inhibitors of intracellular T. cruzi replication, confirmation, NIH3T3 host cells, beta-gal luminescence (AID 2044).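 Also: intracellular parasites grown in NIH/3T3 mouse fibroblasts as host cells; luminescent beta-galactosidase reporter signal from transgenic T. cruzi replicating inside host cells; inhibitors lower the luminescence signal.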 Type of series: functional, cell-based.
Series [7] is described as follows: cytotoxicity toward NIH3T3 fibroblasts, dose response, counter-screen, cell-based, ATP luminescence, mouse fibroblasts (AID 2010).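 Also: cells exposed to compound for about 90 hours before reading.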 Format: functional.
Series [8] can be described thus: Luminescence Cell-Based Dose Retest to Confirm Inhibitors of Cancer Stem Cells. [Related pubchem assays (depositor defined):AID2717, AID2721]. Format: functional. The settings on record: Homo sapiens.
Series [9] can be described thus: cytotoxicity in HMLE control line with eGFP shRNA, dose response, counter-screen for HMLE_sh_ECad selective toxicity project, cell-based, HMLE_sh_eGFP, luminescence (AID 463074).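 Also: HMLE human mammary epithelial cells expressing control shRNA against eGFP.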 Type of series: functional, Homo sapiens.
The test system of another series is INS1. Description: beta cell apoptosis inhibitors, cytokine rescue, dose response, luminescence, retest (AID 449756).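 Also: cell death triggered by IL-1 beta plus TNF-alpha plus IFN-gamma mixture; protective hits raise ATP signal compared with cytokine alone wells.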 Format: functional, cell-based. The settings on record: Rattus norvegicus.
A further series deals with Protein Wnt-3a (Mus musculus, UniProt P27467). Description: Wnt3a-driven reporter signaling inhibition, dose response, selectivity assay for Gli-SUFU antagonist project, Wnt-LIGHT cells, luminescence (AID 651570).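 Also: Wnt-LIGHT reporter cells stimulated with conditioned medium from Wnt3a-producing cells.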 The settings on record: read-out: IC50_Mean. Type of series: functional.
Sequence of Protein Wnt-3a (P27467 whole entry): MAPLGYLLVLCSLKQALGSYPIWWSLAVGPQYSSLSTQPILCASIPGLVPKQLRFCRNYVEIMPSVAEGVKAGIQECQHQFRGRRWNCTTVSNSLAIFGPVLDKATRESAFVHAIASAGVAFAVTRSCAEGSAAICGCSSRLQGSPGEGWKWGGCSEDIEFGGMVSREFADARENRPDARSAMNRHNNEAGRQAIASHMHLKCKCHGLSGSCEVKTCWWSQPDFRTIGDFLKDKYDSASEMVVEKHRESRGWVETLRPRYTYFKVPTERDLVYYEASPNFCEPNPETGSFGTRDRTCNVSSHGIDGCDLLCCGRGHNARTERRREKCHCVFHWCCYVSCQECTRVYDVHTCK
The target of series [10] is Peroxisome proliferator-activated receptor gamma/Nuclear receptor coactivator 1 (Homo sapiens, UniProt P37231). Description: TR-FRET dose response biochemical High Throughput Screening assay for agonists of the steroid receptor coactivator 1 (SRC-1) recruitment by the peroxisome proliferator-activated receptor gamma (PPAR gamma): non-selective agonists. [Related pubchem assays (depositor defined):AID1300, AID1808, AID504735, AID631]. Type of series: protein assay. For orientation: TR-FRET usually uses a lanthanide donor and a delayed reading to cut background.

The target in series [11] is Peroxisome proliferator-activated receptor gamma/Nuclear receptor coactivator 3 (Homo sapiens, UniProt P37231). The experiment in a line: TR-FRET dose response biochemical High Throughput Screening assay for agonists of the steroid receptor coactivator 3 (SRC-3) recruitment by the peroxisome proliferator-activated receptor gamma (PPAR gamma): non-selective agonists. [Related pubchem assays: 1301 (Confirmation screen.), 1048 (Primary screen.)]. Type of series: functional.

The target of series [12] is Peroxisome proliferator-activated receptor gamma/Nuclear receptor coactivator 2 (Homo sapiens, UniProt P37231). The experiment in a line: TR-FRET dose response biochemical High Throughput Screening assay for agonists of the steroid receptor coactivator 2 (SRC-2) recruitment by the peroxisome proliferator-activated receptor gamma (PPAR gamma): non-selective agonists. [Related pubchem assays: 1297, 1032 ]. Format: functional.
Sequence of Peroxisome proliferator-activated receptor gamma/Nuclear receptor coactivator 2 (P37231 whole entry): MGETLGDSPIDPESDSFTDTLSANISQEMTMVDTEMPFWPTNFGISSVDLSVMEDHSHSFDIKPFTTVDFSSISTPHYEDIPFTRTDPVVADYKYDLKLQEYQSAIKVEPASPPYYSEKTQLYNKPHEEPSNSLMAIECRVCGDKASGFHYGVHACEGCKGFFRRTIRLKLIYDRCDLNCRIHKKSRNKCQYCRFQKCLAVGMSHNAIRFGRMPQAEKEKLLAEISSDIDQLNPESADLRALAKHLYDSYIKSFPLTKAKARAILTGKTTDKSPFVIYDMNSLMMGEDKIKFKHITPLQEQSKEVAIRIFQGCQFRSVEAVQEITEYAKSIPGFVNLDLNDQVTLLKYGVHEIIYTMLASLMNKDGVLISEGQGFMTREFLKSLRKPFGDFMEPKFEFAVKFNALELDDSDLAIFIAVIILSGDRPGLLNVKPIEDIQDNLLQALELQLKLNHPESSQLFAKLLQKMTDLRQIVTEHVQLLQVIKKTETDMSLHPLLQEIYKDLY
Sequence of Peroxisome proliferator-activated receptor gamma/Nuclear receptor coactivator 2 (Q15596 whole entry, further chain): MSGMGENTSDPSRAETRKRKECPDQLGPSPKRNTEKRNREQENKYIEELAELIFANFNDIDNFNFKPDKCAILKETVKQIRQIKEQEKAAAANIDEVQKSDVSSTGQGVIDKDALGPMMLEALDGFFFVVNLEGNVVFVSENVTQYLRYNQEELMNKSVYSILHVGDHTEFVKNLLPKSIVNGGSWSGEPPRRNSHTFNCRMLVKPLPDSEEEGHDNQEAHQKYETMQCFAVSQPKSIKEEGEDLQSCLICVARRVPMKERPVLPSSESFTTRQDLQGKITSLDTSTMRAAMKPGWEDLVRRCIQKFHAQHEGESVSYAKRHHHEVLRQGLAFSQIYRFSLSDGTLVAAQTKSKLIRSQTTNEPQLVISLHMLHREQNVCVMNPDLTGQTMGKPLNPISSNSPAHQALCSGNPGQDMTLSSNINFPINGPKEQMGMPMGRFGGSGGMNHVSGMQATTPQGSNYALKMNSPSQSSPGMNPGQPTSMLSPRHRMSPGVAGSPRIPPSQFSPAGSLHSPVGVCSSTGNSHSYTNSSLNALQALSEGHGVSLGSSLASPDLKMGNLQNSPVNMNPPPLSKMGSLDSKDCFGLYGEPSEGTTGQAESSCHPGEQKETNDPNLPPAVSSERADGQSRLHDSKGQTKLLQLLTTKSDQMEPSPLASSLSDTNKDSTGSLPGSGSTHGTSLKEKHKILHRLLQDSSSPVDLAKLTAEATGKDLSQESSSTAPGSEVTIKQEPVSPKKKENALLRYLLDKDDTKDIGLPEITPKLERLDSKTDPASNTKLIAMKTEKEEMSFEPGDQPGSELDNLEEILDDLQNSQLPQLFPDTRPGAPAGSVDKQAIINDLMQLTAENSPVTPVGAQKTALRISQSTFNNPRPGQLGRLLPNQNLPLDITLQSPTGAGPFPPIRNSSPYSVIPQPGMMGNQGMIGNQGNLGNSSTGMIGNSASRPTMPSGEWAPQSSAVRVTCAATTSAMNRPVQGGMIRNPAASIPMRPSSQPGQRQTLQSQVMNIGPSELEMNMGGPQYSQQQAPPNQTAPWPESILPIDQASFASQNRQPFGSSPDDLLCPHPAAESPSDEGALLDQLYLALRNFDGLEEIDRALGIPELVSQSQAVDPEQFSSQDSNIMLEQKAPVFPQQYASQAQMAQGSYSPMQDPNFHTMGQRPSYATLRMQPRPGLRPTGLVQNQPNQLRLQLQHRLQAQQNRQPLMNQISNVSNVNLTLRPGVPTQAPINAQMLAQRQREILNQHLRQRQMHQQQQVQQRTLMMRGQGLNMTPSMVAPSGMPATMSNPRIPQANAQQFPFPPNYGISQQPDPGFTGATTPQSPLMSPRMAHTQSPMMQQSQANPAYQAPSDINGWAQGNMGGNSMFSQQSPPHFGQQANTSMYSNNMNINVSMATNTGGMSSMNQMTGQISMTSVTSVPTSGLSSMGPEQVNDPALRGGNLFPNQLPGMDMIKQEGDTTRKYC

The target of a further series is T4, Bcl-2-related protein A1 (Mus musculus, UniProt Q07440).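 Also: confirmatory dose–response counterscreen on Bfl-1, used to check hits from a UBC13 polyubiquitin inhibitor campaign.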
T4 sequence (Q07440 whole entry): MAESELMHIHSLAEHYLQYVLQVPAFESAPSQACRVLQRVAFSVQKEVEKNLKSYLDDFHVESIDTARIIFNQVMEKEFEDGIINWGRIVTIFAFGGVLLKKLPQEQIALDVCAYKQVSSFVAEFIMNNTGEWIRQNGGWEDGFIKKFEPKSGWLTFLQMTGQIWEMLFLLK
Format: functional.

Series [13] has as its target T5, Ubiquitin-conjugating enzyme E2 N (Homo sapiens, UniProt P61088).
T5 sequence (P61088 whole entry): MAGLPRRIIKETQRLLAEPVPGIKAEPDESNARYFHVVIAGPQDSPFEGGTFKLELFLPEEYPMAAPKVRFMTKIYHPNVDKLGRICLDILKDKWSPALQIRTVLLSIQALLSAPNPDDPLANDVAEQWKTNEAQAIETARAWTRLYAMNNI
Format: functional.

Series [14] concerns the target T5, Ubiquitin-conjugating enzyme E2 N. Format: functional. This is another data set of the same source.
The target in series [15] is T6, Rac GTPase-activating protein 1 (Homo sapiens, UniProt Q9H0H5).
T6 sequence (Q9H0H5 whole entry): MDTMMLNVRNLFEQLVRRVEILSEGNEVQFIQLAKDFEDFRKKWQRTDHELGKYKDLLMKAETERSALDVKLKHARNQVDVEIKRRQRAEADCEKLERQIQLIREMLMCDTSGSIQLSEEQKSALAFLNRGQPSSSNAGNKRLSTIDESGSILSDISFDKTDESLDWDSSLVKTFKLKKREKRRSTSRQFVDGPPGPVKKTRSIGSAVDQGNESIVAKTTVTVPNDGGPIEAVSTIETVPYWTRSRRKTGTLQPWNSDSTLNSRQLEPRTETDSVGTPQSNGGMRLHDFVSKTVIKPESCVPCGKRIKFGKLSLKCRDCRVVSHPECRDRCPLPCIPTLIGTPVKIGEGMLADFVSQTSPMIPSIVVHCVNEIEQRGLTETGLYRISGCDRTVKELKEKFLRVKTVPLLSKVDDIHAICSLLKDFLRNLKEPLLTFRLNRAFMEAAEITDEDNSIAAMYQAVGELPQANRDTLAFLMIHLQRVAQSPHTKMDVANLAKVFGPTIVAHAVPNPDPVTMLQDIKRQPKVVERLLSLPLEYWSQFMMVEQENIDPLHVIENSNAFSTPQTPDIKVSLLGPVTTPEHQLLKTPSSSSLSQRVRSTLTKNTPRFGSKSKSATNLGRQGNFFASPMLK
The experiment in a line: MgcRacGAP GTPase-activating activity inhibitors, confirmation, biochemical, ADP Hunter fluorescence, primary and confirmatory (AID 624330). Format: functional.

For another series, the system named is Escherichia coli. The experiment in a line: microbe, parasite or virus in culture.
In another series the target is Cytochrome P450 2D6 (Homo sapiens, UniProt P10635).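 Also: CYP2D6 member of a cytochrome P450 panel assay.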
Sequence of Cytochrome P450 2D6 (P10635 whole entry): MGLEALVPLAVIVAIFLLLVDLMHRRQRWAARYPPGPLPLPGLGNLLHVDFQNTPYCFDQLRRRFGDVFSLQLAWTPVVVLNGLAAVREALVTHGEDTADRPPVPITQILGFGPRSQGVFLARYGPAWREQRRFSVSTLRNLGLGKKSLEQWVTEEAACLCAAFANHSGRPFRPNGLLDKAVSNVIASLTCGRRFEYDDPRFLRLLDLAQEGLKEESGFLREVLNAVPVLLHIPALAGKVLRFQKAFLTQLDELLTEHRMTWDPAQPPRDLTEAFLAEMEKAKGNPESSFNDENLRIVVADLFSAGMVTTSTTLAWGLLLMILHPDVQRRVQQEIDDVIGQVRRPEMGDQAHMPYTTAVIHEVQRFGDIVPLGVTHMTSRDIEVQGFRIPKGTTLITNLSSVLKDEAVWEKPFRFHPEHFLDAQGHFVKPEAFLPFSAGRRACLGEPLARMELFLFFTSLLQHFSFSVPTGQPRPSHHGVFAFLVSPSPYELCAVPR
Series [16] deals with T2, Cytochrome P450 3A4. The source holds these as a separate data set.

Activity calls are given as the source filed them. Where only a bound is given, the exact number is not on record here.

T2 sequence (P08684 whole entry): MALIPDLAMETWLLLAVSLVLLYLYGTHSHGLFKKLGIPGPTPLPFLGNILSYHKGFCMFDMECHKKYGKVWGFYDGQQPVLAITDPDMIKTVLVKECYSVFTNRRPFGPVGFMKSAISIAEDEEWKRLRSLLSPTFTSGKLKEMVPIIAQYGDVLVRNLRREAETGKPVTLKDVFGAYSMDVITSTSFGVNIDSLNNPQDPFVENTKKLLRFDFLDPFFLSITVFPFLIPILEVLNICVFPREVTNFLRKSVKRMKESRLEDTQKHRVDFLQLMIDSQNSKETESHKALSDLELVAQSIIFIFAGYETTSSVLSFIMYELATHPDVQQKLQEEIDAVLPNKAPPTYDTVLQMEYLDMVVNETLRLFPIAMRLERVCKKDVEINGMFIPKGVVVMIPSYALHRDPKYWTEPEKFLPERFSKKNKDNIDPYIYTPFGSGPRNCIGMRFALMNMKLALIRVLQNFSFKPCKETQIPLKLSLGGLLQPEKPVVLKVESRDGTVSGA

For `Cc1ccc(C(=O)NCCc2ccc(F)cc2)s1`, the AC50 in the series on HeLa was 43.2 µM (active).
On to `Cc1nc2cc(NC(=O)COc3ccccc3C#N)ccc2n1-c1ccccc1`, for which the IC50 with CHO-K1 is > 66.2 µM (inactive); in series [1], > 49.7 µM (inactive); in series [2], 1.61 µM (active); in series [3], 3.45 µM (active).
In the case of `COC(=O)c1cc(C(=O)c2cccc(Cl)c2Cl)cn1C`, the concentration at half-maximal activity (AC50) entry on Cytochrome P450 3A4 [4] and at Cytochrome P450 2C9 was “inconclusive” throughout.
`CC[N+]1=C(C)C(C)(C)c2cc(C)ccc21`: the IC50 in series [5] is > 50 µM (not active); on Protein Wnt-3a, 892 nM (active). Besides, the EC50 was 1.49 µM (active) in [6] and > 60 µM (not active) in series [7]. The results for the AC50 (in series [8]; in [9]; with INS1) were 24 µM (active), 64.4 µM (active) and 5.84 µM (active), respectively.
For the compound `NC(=O)CC(NC(=O)Cc1cccc2ccccc12)c1ccc(NC2CCCCC2)c([N+](=O)[O-])c1` (stereo not given), the AC50 was 5.79 µM (active) in [8] and 27.9 µM (active) in series [9].
`Cc1cc(C)nc(N=C(N)Nc2ccc(F)c([N+](=O)[O-])c2)n1`: the IC50 in the series with CHO-K1 is 11.6 µM (inactive); in [1], 17.8 µM (inactive); in series [2], 10.1 µM (inactive); in series [3], 15.1 µM (inactive).
In the case of `CCn1c(=O)cc(SCC(=O)NCCCN2CCN(c3ccc(F)cc3)CC2)c2ccccc21`, the EC50 in series [10] is > 79.4 µM (inactive); in [11], > 79.4 µM (not active); in [12], > 79.4 µM (not active). For the same compound, the IC50 on Bcl-2-related protein A1 was > 20 µM (inactive); in series [13], 4.95 µM (active); in series [14], 5.57 µM (active).
As for `Cn1c(=O)c(-c2ccc(F)cc2)nc2cnc(N3CCOCC3)nc21`, the half-maximal activity concentration (AC50) entry on Cytochrome P450 3A4 [4] is “inconclusive”.
Regarding `CCc1ccc(O)c(-c2cc(C(=O)Nc3cccnc3)[nH]n2)c1`, in the series with HeLa, the AC50 was > 350 µM (inactive).
`C(=N\Nc1ccccn1)/c1ccc(N2CCOCC2)cc1`: the IC50 in [15] is 134 µM (active). For the same compound, in the series on Escherichia coli, the AC50 is 62 µM (active).
Regarding `CCCCCOc1ccc(OC(=O)c2ccncc2)cc1`, the concentration at half-maximal activity (AC50) is 7.57 µM (active) in series [8], 21.2 µM (active) in series [9], 3.98 µM (inconclusive) on Cytochrome P450 2D6 and 25.1 µM (inconclusive) at Cytochrome P450 3A4 [16].
Turning to `Cn1cccc1C(=O)N1CCC2(CC1)CCN(c1ncccn1)CC2`, the AC50 entry at Cytochrome P450 3A4 [4] is reported as “inconclusive”.

What is called AC50 is the concentration giving half of the maximal activity seen. For orientation: EC50 means the midpoint of the concentration-response curve.
